Assay [1] in a line: Cytotoxicity against human 9KB cells. Particulars: read-out: ED50 (the source's name). It counts as functional.
Another assay deals with B16. Briefly: In vivo antitumor activity against mouse B16 cells at 1.5 to 12.0 mg/kg relative to control. It is filed as functional, organism-based.
Another assay deals with P388. The assay can be described thus: In vivo antitumor activity against mouse P388 cells at 7.5 mg/kg relative to control. It is filed as functional.

Results on nine compounds are retold here after ChEMBL document CHEMBL1151366, “Potential Anticancer Agents. XVIII. Constituents of Amyris pinnata” (1981).

Molecules are shown by their SMILES. ≈ marks a conversion by molar mass, not a printed value. Calls of active or inactive are those of the source. The rule behind the calls is not given here. Where only a bound is given, the exact number is not on record here.

For `CC1(C)C=Cc2c(ccc3ccc(=O)oc23)O1` [SESALIN], the EC50 in assay [1] amounted to 31 µg/mL (≈ 136 µM).

As to `CC(C)=CCOc1c2occc2cc2ccc(=O)oc12` [PENTOSALEN], the EC50 in assay [1] is 33 µg/mL (≈ 122 µM).

In the case of `CC(C)(O)[C@H](O)COc1c2occc2cc2ccc(=O)oc12` [HERACLENOL], in assay [1], the EC50 was more than 100 µg/mL.

In the case of `O=C1OC[C@H](Cc2ccc3c(c2)OCO3)/C1=C\c1ccc2c(c1)OCO2` [SAVININ], in assay [1], the EC50 was 22 µg/mL (≈ 62.4 µM).

As for `O=C1OCC(C(O)c2ccc3c(c2)OCO3)C1Cc1ccc2c(c1)OCO2` (stereo unspecified) [SVENTENIN], the EC50 in assay [1] was 23 µg/mL (≈ 62.1 µM).

In the case of `COc1cc([C@@H]2c3cc4c(cc3C[C@H]3COC(=O)[C@@H]32)OCO4)cc2c1OCO2` [AUSTROBAILIGNAN 1], the EC50 in assay [1] amounted to 0.027 µg/mL (≈ 0.0706 µM). Further, in the assay on B16, the result was inactive. For the same compound, the T/C with P388 was determined as 125%.

On to `CC[C@H](CC[C@@H](C)[C@H]1CC[C@H]2[C@@H]3CC=C4C[C@@H](O)CC[C@]4(C)[C@H]3CC[C@]12C)C(C)C` [BETA-SITOSTEROL], for which the EC50 in assay [1] came to 22 µg/mL (≈ 53 µM).

On to `COc1cc2ccc(=O)oc2cc1O` [SCOPOLETIN], for which the EC50 in assay [1] was determined as 2.9 µg/mL (≈ 15.1 µM).

`COc1c2ccoc2c(OCC=C(C)C)c2oc(=O)ccc12` [PHELLOPTERIN]: in assay [1], the EC50 is 7.2 µg/mL (≈ 24 µM).

Broadly, the T/C is the ratio of treated to control.
